Laboratory results reported in ChEMBL document CHEMBL3046178, “Quantitative Structure-Activity Relationships of Larvicidal N-[5-(Substituted phenyl)-1, 3, 4-thiadiazol-2-yl]-benzamides in the Inhibition of N-Acetylglucosamine Incorporation into a Cultured Integument System” (J Pestic Sci, 1996).

Tests used:
[1] = 1-octanol-water partition co-efficient, log P of the compound; type: physicochemical
[2] = system: Chilo suppressalis; assay: Insecticidal activity against Chilo suppressalis (rice stem borer) third-instar larvae assessed as mortality at pI50 after 5 days in presence of piperonyl butoxide; type: functional; design: concentration or dose not given beside the values
[3] = system: Chilo suppressalis; assay: Insecticidal activity against Chilo suppressalis (rice stem borer) third-instar larvae assessed as mortality after 5 days in presence of piperonyl butoxide; type: functional
[4] = system: Chilo suppressalis; assay: Insecticidal activity against Chilo suppressalis (rice stem borer) third-instar larvae assessed as mortality at pI50 after 5 days; type: functional
[5] = system: Chilo suppressalis; assay: Insecticidal activity against Chilo suppressalis (rice stem borer) third-instar larvae assessed as mortality after 5 days; type: functional
[6] = system: Chilo suppressalis; assay: Inhibition of chitin synthesis in 20-hydroxyecdysone-stimulated Chilo suppressalis (rice stem borer) larval integument assessed as inhibition of N-acetyl-{1-14C]-glucosamine at pI50 after 72 hr by liquid scintillation counting; type: functional

SMILES	logP [1]	mortality [2] [%]	pLD50 [3]	mortality [4] [%]	pLD50 [5]	inhibition (INH) [6] [%]
COc1cccc(OC)c1C(=O)Nc1nnc(-c2ccc(F)cc2)s1	3.5	14	<5	–	–	–
COc1ccc(-c2nnc(NC(=O)c3c(OC)cccc3OC)s2)cc1	3.56	0	<5	–	–	–
O=C(Nc1nnc(-c2ccc(Cl)cc2)s1)c1ccccc1	–	–	–	0	<5.6	10
O=C(Nc1nnc(-c2ccc(Cl)cc2)s1)c1c(F)cccc1F	–	–	–	0	<4.6	42
O=C(Nc1nnc(-c2ccc(Cl)cc2)s1)c1c(Cl)cccc1Cl	–	–	–	5	<5	–
Cc1cccc(C)c1C(=O)Nc1nnc(-c2ccc(Cl)cc2)s1	–	–	–	–	5.48	–
COc1cccc(OC)c1C(=O)Nc1nnc(-c2ccc(Cl)cc2)s1	3.96	–	<5.96	–	5.96	–
O=C(Nc1nnc(-c2ccc(Cl)cc2)s1)c1ccccc1F	–	–	–	0	<4.6	–
O=C(Nc1nnc(-c2ccc(Cl)cc2)s1)c1ccccc1Cl	–	–	–	41	<4.6	37
O=C(Nc1nnc(-c2ccc(Cl)cc2)s1)c1ccccc1Br	–	–	–	0	<4.6	32
O=C(Nc1nnc(-c2ccc(Cl)cc2)s1)c1ccccc1I	–	–	–	5	<4.6	17
O=C(Nc1nnc(-c2ccc(Cl)cc2)s1)c1ccccc1C(F)(F)F	–	–	–	0	<4.6	7
O=C(Nc1nnc(-c2ccc(Cl)cc2)s1)c1ccccc1[N+](=O)[O-]	–	–	–	0	<4.6	0
Cc1ccccc1C(=O)Nc1nnc(-c2ccc(Cl)cc2)s1	–	–	–	0	<4.6	–
COc1ccccc1C(=O)Nc1nnc(-c2ccc(Cl)cc2)s1	–	–	–	–	5.96	–
CCOc1ccccc1C(=O)Nc1nnc(-c2ccc(Cl)cc2)s1	–	–	–	10	<5.6	23
CCN(CC)c1ccccc1C(=O)Nc1nnc(-c2ccc(Cl)cc2)s1	–	–	–	0	<5	8
COc1cccc(OC)c1C(=O)Nc1nnc(-c2ccccc2)s1	3.5	0	<5	–	–	–
COc1cccc(OC)c1C(=O)Nc1nnc(-c2ccc(C)cc2)s1	3.85	–	5	–	–	–
COc1cccc(OC)c1C(=O)Nc1nnc(-c2ccc(Br)cc2)s1	3.96	–	5.57	–	–	–
COc1cccc(OC)c1C(=O)Nc1nnc(-c2ccc([N+](=O)[O-])cc2)s1	2.54	0	<5	–	–	–
COc1cccc(OC)c1C(=O)Nc1nnc(-c2ccc(C#N)cc2)s1	3.14	–	–	–	–	–
CCOc1ccc(-c2nnc(NC(=O)c3c(OC)cccc3OC)s2)cc1	3.75	6	<5	–	–	–
O=C(NC(=O)c1c(F)cccc1F)Nc1ccc(Cl)cc1 [DIFLUBENZURON]	–	–	6.64	–	–	–
